Laboratory results from BindingDB's records for PubMed 2968449 (Squibb Institute For Medical Research, 1988).
Where “and” joins values, the source holds several entries; their conditions need not be identical. Equal entries are not always repeated.

Molecular target: T1, Thromboxane A2 receptor (Homo sapiens, UniProt P21731)
T1 sequence (P21731 whole entry): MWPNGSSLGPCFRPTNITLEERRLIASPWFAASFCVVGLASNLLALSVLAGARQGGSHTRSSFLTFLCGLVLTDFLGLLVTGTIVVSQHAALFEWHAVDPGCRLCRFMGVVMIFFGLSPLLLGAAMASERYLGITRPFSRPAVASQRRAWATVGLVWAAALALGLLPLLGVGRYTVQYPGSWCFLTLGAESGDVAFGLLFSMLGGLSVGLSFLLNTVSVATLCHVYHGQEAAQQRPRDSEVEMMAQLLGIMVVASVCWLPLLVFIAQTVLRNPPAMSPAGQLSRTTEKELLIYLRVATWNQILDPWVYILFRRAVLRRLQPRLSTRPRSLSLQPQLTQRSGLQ

Row | Ki | SMILES
1 | 72.7 nM and 31.8 nM | CC(c1ccccc1)C(O)C=CC1C2CCC(O2)C1CC=CCCCC(=O)O (centres undefined) [NSC_3036123]
2 | 49.6 nM and 28.3 nM | CCCCCCC(=O)NCC(=O)NCC1C2CCC(O2)C1CC=CCCCC(=O)O (centres undefined) [CAS_119571]
3 | 7.1 nM and 4.4 nM | CCCCCC(O)C=CC1C2COC(C2)C1CC=CCCCC(=O)O (centres undefined) [NSC_114865]
4 | 18.7 nM and 3.6 nM | CCCCC[C@H](O)/C=C/C1[C@@H](C/C=C\CCCC(=O)O)[C@H]2CO[C@@H]1C2 (some centres undefined) [U46619]
